Test results reported in patent publication US8071633B2, “Pharmaceutical composition for treating spinocerebellar ataxia” (Shionogi & Co., Ltd., priority 2004, dated 2011).

Assays:
Rolling Mouse Nagoya [1] = assay: Experiment 1: effect of improving ataxia on Rolling Mouse Nagoya (fall index, open-field method); assay type: in vivo; conditions: for effect on improvement of ataxia (fall index): 1 hour after administration, FIG. 1
Description: Experiment 1 Effect of improving ataxia on Rolling Mouse Nagoya
Rolling Mouse Nagoya, a hereditary ataxia mouse, is known as a model mouse for spinocerebellar ataxia and has been reported in many papers (E. Kurihara, N. Fukuda, S. Narumi, T. Matsuo, S. Saji, and Y. Nagawa, Jpn. Pharmacol., Ther., 13, 49-56 (1985), Y. Mano, K. Matsui, E. Toyoshima, and K. Ando, Acta. Neurol. Scand., 73, 352-358 (1986), K. Kinoshita, T. Fujitsuka, M. Yamamura, and Y. Matsuoka, Eur. J. Pharmacol., 274, 65-72 (1995), K. Kinoshita, T. Fukushima, Y, Kodama, J. Sugihara, M. Yamamura, and Y. Matsuoka, Biol. Pharm. Bull., 20, 36-39 (1997)).
Effect of Compound (I-1) for ataxia of Rolling Mouse Nagoya was investigated. The following compounds in Patent Literature 1 and Non-Patent Literature 1 were used as Control Compounds 1 and 2.
An effect on improvement of ataxia was evaluated with a fall index by an open-field method. Mice were left in the center of an open-field (circle open-field, 75 cm in a diameter, 25 divisions). Number of divisions passed and numbers of falls for 5 minutes were counted, and a fall index (numbers of falls/number of divisions passed) was calculated.
Each of the compounds was dissolved in a physiological saline on the day of the experiment. Each compound was orally administered to mice using a sonde for oral administration at the following dosage; Compound (I-1): 1 mg/kg and 3 mg/kg, Control Compound 1: 30 mg/kg and 100 mg/kg, Control Compound 2: 100 mg/kg and 300 mg/kg. Physiological saline alone was administered to mice as a control group. Volume for oral administration was 0.2 mL per 20 g body weight of a mouse.
Effect on improvement of ataxia for each mouse was evaluated 1 hour after administration by the open-field method. Sample numbers were 5 or more in every group.

[2] = test system: cerebellum-injured rat by administration of Ara-C; assay: Experiment 2: effect of improving ataxia on cerebellum-injured rat by administration of Ara-C (fall index, open-field method); assay type: in vivo, Sprauge-Dawley rats; conditions: for effect on improvement of ataxia (fall index): oral once a day for seven days, 24 hours after final administration, FIG. 2; for dosage ratio giving the same level efficacy versus Compound (I-1): oral, repeated administration
Experimental: Experiment 2 Effect of improving ataxia on cerebellum-injured rat by administration of Ara-C
Ara-C (60 mg/kg, Nippon Shinyaku) was subcutaneously administered to Sprauge-Dawley rats (CLEA Japan, Inc) of 2 days old and 3 days old, and the effects of improving ataxia on Compound (I-1), Control Compound 1 and Control Compound 2 at 4 weeks old were investigated.
The effect of improving on ataxia was evaluated with a fall index by an open-field method. Rats were left in the center of an open-filed (circle open-filed, 75 cm in a diameter, 25 divisions), number of divisions passed and numbers of falls for 3 minutes were counted, and a fall index (numbers of falls/number of divisions passed) was calculated.
Each of the compounds was dissolved in a physiological saline on the day of administration. Each compound was orally administered to rats using a sonde for oral administration at the following dosage; Compound (I-1): 0.1 mg/kg, 0.3 mg/kg, 1 mg/kg and 3 mg/kg, Control Compound 1: 30 mg/kg and 100 mg/kg, Control Compound 2: 100 mg/kg and 300 mg/kg. Physiological saline alone was administered to rats as a control group. The compounds were repetitively orally administered one a day for seven days and the effect was investigated 24 hours after the final administration. Volume for oral administration was 0.1 mL per 100 g body weight of a rat. Sample numbers were 5 or more in every group.

Rolling Mouse Nagoya [3] = assay: Experiment 3: effect of improving ataxia on Rolling Mouse Nagoya (fall index, square open-field); assay type: in vivo; conditions: oral 100 mg/kg, 1 hour after administration, FIG. 3
Experimental: Experiment 3 Effect of improving ataxia on Rolling Mouse Nagoya
Effects of the compounds described in Patent Literature 8 (I-3: R=CN, I-1: R=CONH2) and Control Compound 2 on ataxia on Rolling Mouse Nagoya were investigated.
The effect on ataxia was evaluated with a fall index by an open-field method. Mice were left in the center of an open-field (square open-field, 100 cm×100 cm, divided into 25 squares of 20 cm×20 cm), number of squares passed and numbers of falls for 10 minutes were counted, and a fall index (numbers of falls/number of squares passed) was calculated.
Each of the compounds was dissolved in a physiological saline on the day of the experiment. Each compound was orally administered to mice using a sonde for oral administration at the following dosage; Compounds (I-3) and (I-4): 10 mg/kg, Control Compound 2: 100 mg/kg. Volume for oral administration was 0.2 mL per 20 g body weight of a mouse.
Each of the test compound was orally administered just after a fall index of each mouse in the open-field was calculated. A fall index was calculated again 1 hour after administration and the effect of improving ataxia was evaluated. Sample numbers were 5 or more in every group.

[4] = oral, comparison of effective doses

Structure (SMILES)	effect on improvement of ataxia (fall index) (Rolling Mouse Nagoya [1]; oral, only at 100 mg/kg (30 and 100 mg/kg tested))	effect on improvement of ataxia (fall index) ([2]; only at 100 mg/kg (30 and 100 mg/kg tested))	dosage ratio giving the same level efficacy versus Compound (I-1) [2]	effect on improvement of ataxia (fall index) (Rolling Mouse Nagoya [1]; oral 3 mg/kg)	effect of improving ataxia relative to Control Compound 1 (Rolling Mouse Nagoya [1]; [4]) [times]	effect of improving ataxia relative to Control Compound 2 (Rolling Mouse Nagoya [1]; [4]) [times]	effect on improvement of ataxia (fall index) ([2]; 0.3 mg/kg or more)	effect on improvement of ataxia (fall index) (Rolling Mouse Nagoya [1]; oral, even at 300 mg/kg (100 and 300 mg/kg tested))	effect on improvement of ataxia (fall index) ([2]; even at 300 mg/kg)	effect of improving ataxia (fall index before vs after administration) (Rolling Mouse Nagoya [3])
CN1C(=O)C[C@H](C(=O)N[C@H](Cc2c[nH]cn2)C(=O)N2CCC[C@@H]2C(N)=O)NC1=O [Control Compound 1]	superior effect of improving ataxia to that in a control group	superior effect on improvement of ataxia in comparison of a control group	1/300	–	–	–	–	–	–	–
C[C@@H]1OC(=O)N[C@@H]1C(=O)N[C@@H](Cc1cscn1)C(=O)N1CCC[C@H]1C.O.O.O [Compound (I-1)]	–	–	–	superior effect on improvement of ataxia	≥ 30	≥ 100	superior effect on improvement of ataxia to Control Compounds	–	–	–
NC(=O)[C@H]1CCCN1C(=O)[C@@H](Cc1c[nH]cn1)NC(=O)[C@@H]1CCC(=O)N1 [Control Compound 2]	–	–	1/1000	–	–	–	–	does not show the improvement effect	does not show the improvement effect	weak improvement effect
